Experimental data taken from US11046694B2, “Compounds and methods for treating bacterial infections” (Entasis Therapeutics, Inc., priority 2018, dated 2021).
≈ marks a conversion by molar mass, not a printed value. Structures can show the parent of a compound that is named as a salt.

Legend:
P. aeruginosa PBP1a = P. aeruginosa PBP1a (Pseudomonas aeruginosa, UniProt Q07806); format: biochemical; conditions: P. aeruginosa PBP1a 60 nM, BOCILLIN FL 30 nM, pH 7.0
P. aeruginosa PBP2 = molecular target: T1, P. aeruginosa PBP2 (Pseudomonas aeruginosa, UniProt Q9X6V3); format: biochemical; conditions: P. aeruginosa PBP2 300 nM, BOCILLIN FL 30 nM, pH 6.2
T1 sequence (Q9X6V3 1-646): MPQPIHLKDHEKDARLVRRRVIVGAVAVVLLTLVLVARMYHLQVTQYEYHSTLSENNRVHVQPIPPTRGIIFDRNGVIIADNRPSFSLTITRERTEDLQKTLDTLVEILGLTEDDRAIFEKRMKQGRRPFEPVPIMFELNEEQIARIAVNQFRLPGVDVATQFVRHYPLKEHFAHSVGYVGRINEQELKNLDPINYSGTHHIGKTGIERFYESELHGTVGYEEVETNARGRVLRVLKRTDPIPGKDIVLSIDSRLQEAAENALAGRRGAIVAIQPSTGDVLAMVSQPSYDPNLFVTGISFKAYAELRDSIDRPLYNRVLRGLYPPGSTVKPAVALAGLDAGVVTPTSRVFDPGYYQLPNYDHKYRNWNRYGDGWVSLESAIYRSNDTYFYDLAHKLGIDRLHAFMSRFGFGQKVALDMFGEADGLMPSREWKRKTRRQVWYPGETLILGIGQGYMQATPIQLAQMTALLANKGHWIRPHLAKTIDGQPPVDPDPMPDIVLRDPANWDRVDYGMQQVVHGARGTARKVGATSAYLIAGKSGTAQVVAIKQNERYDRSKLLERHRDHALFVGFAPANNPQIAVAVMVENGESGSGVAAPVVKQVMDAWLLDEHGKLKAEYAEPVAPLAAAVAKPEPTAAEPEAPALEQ

P. aeruginosa PBP3 = P. aeruginosa PBP3 (Pseudomonas aeruginosa, UniProt G3XD46); format: biochemical; conditions: P. aeruginosa PBP3 60 nM, BOCILLIN FL 30 nM, pH 7.0
Sequence of P. aeruginosa PBP3 (G3XD46 whole entry): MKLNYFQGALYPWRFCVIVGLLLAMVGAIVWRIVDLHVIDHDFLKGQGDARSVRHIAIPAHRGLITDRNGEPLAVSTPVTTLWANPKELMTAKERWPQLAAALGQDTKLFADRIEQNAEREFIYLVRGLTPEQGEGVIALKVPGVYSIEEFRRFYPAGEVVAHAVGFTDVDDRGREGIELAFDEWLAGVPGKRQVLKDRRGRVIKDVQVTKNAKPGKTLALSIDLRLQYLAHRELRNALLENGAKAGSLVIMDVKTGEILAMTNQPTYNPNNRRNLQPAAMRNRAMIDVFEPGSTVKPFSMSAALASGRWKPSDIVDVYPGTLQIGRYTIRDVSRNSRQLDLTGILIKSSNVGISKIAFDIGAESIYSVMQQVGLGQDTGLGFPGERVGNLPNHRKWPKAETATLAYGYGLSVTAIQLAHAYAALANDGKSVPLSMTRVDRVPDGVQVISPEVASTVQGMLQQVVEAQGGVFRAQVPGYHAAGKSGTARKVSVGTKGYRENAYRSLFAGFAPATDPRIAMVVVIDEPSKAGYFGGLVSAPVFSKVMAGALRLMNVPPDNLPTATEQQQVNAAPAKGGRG

P. aeruginosa WT (PAO1) = test: MIC, CLSI broth microdilution, P. aeruginosa; format: cell-based; conditions: CLSI broth microdilution; for MIC: Pseudomonas aeruginosa, PAO1, read-out: P. aeruginosa WT (PAO1) MIC
E. coli (ATCC25922) = test: MIC against E. coli; conditions: for MIC: Escherichia coli, ATCC25922, read-out: E. coli MIC (ATCC25922) (mg/L)
A. baumannii (ARC3495) = test: MIC against A. baumannii; conditions: for MIC: Acinetobacter baumannii, read-out: A. baumannii MIC (ARC3495) (mg/L)
[1] = system: K. pneumoniae (ATCC700603); test: MIC against K. pneumoniae; conditions: for MIC: Klebsiella pneumoniae, ATCC700603, read-out: K. pneumoniae MIC (ATCC700603)

Sequence of P. aeruginosa PBP1a (Q07806 whole entry): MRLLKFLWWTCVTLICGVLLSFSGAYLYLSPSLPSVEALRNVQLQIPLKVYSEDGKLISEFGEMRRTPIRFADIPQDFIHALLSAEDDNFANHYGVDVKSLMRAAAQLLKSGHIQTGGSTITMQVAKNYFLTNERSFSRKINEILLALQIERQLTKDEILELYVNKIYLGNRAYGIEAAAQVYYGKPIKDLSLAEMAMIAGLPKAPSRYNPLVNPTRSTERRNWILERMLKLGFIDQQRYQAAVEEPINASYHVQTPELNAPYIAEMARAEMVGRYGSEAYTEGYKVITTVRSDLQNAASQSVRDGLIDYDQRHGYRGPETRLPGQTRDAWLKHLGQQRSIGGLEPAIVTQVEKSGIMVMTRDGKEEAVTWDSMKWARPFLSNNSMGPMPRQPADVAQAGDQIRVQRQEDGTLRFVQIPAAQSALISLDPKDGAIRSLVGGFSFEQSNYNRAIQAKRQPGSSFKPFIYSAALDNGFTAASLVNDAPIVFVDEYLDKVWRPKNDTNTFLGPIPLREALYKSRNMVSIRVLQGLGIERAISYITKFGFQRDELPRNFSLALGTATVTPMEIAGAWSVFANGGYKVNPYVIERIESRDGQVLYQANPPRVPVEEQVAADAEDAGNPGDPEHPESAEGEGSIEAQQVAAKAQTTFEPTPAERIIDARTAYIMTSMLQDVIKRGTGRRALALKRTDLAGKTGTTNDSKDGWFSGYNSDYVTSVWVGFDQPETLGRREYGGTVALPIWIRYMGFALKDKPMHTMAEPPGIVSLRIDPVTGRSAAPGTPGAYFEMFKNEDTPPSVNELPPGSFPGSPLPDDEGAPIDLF

Cn1ncc2c1[C@@H](C1=NOC(Cc3ccccc3)C1)N1C[C@@H]2N(OS(=O)(=O)O)C1=O (mixture of isomers) [Example 36]
PBP1a acylation rate, k(on) (M^−1 · s^−1) (P. aeruginosa PBP1a): ** (** represents a k(on) of 100 to 10,000 M^−1 · s^−1) | PBP2 acylation rate, k(on) (M^−1 · s^−1) (P. aeruginosa PBP2): * (* represents a k(on) < 100 M^−1 · s^−1) | PBP3 acylation rate, k(on) (M^−1 · s^−1) (P. aeruginosa PBP3): ** (** represents a k(on) of 100 to 10,000 M^−1 · s^−1) | MIC (P. aeruginosa WT (PAO1)): > 16 µg/mL | MIC (E. coli (ATCC25922)): < 8 mg/L | MIC (A. baumannii (ARC3495)): > 16 mg/L | MIC [1]: > 16 µg/mL

Cn1ncc2c1[C@@H](C1=NOC(CO)C1)N1C[C@@H]2N(OS(=O)(=O)O)C1=O (stereo partly drawn) [Example 38, (4R,8S)-8-(5-(hydroxymethyl)-4,5-dihydroisoxazol-3-yl)-1-methyl-6-oxo-4,8-dihydro-1H-4,7-methanopyrazolo[3,4-e][1,3]diazepin-5(6H)-yl hydrogen sulfate]
PBP1a acylation rate, k(on) (M^−1 · s^−1) (P. aeruginosa PBP1a): * (* represents a k(on) < 100 M^−1 · s^−1) | PBP2 acylation rate, k(on) (M^−1 · s^−1) (P. aeruginosa PBP2): * (* represents a k(on) < 100 M^−1 · s^−1) | PBP3 acylation rate, k(on) (M^−1 · s^−1) (P. aeruginosa PBP3): * (* represents a k(on) < 100 M^−1 · s^−1) | MIC (P. aeruginosa WT (PAO1)): > 16 µg/mL | MIC (E. coli (ATCC25922)): 8 to 16 mg/L | MIC (A. baumannii (ARC3495)): > 16 mg/L | MIC [1]: > 16 µg/mL

CN/C(=N\OCCCCN)[C@@H]1c2c(cnn2C)[C@@H]2CN1C(=O)N2OS(=O)(=O)O (racemic) [Example 6]
PBP1a acylation rate, k(on) (M^−1 · s^−1) (P. aeruginosa PBP1a): * (* represents a k(on) < 100 M^−1 · s^−1) | PBP2 acylation rate, k(on) (M^−1 · s^−1) (P. aeruginosa PBP2): * (* represents a k(on) < 100 M^−1 · s^−1) | PBP3 acylation rate, k(on) (M^−1 · s^−1) (P. aeruginosa PBP3): ** (** represents a k(on) of 100 to 10,000 M^−1 · s^−1) | MIC (P. aeruginosa WT (PAO1)): 8 to 16 µg/mL (≈ 19.2 to 38.3 µM) | MIC (E. coli (ATCC25922)): 8 to 16 mg/L (≈ 19.2 to 38.3 µM) | MIC (A. baumannii (ARC3495)): > 16 mg/L | MIC [1]: > 16 µg/mL

CCN1CCN(C(=O)NC/C(=N\O)[C@@H]2c3c(cnn3C)[C@@H]3CN2C(=O)N3OS(=O)(=O)O)C(=O)C1=O [Example 55, (4R,8S)-8-((E)-2-(4-ethyl-2,3-dioxopiperazine-1-carboxamido)-1-(hydroxyimino)ethyl)-1-methyl-6-oxo-4,8-dihydro-1H-4,7-methanopyrazolo[3,4-e][1,3]diazepin-5(6H)-yl hydrogen sulfate]
PBP1a acylation rate, k(on) (M^−1 · s^−1) (P. aeruginosa PBP1a): * (* represents a k(on) < 100 M^−1 · s^−1) | PBP2 acylation rate, k(on) (M^−1 · s^−1) (P. aeruginosa PBP2): * (* represents a k(on) < 100 M^−1 · s^−1) | PBP3 acylation rate, k(on) (M^−1 · s^−1) (P. aeruginosa PBP3): * (* represents a k(on) < 100 M^−1 · s^−1) | MIC (P. aeruginosa WT (PAO1)): > 16 µg/mL | MIC (E. coli (ATCC25922)): < 8 mg/L | MIC (A. baumannii (ARC3495)): > 16 mg/L | MIC [1]: > 16 µg/mL

CN/C(=N\OC)[C@@H]1c2c(cnn2C)[C@@H]2CN1C(=O)N2OS(=O)(=O)O [Example 4, (4R,8S)-8-((Z)—N′-methoxy-N-methylcarbamimidoyl)-1-methyl-6-oxo-4,8-dihydro-1H-4,7-methanopyrazolo[3,4-e][1,3]diazepin-5(6H)-yl hydrogen sulfate]
PBP1a acylation rate, k(on) (M^−1 · s^−1) (P. aeruginosa PBP1a): ** (** represents a k(on) of 100 to 10,000 M^−1 · s^−1) | PBP2 acylation rate, k(on) (M^−1 · s^−1) (P. aeruginosa PBP2): * (* represents a k(on) < 100 M^−1 · s^−1) | PBP3 acylation rate, k(on) (M^−1 · s^−1) (P. aeruginosa PBP3): *** (*** represents a k(on) > 10,000 M^−1 · s^−1) | MIC (P. aeruginosa WT (PAO1)): > 16 µg/mL | MIC (E. coli (ATCC25922)): < 8 mg/L | MIC (A. baumannii (ARC3495)): > 16 mg/L | MIC [1]: > 16 µg/mL

Cn1ncc2c1[C@@H](C1=NOC(Cc3ccccc3)C1)N1C[C@@H]2N(OS(=O)(=O)O)C1=O (mixture of isomers) [Example 37]
PBP1a acylation rate, k(on) (M^−1 · s^−1) (P. aeruginosa PBP1a): * (* represents a k(on) < 100 M^−1 · s^−1) | PBP2 acylation rate, k(on) (M^−1 · s^−1) (P. aeruginosa PBP2): * (* represents a k(on) < 100 M^−1 · s^−1) | PBP3 acylation rate, k(on) (M^−1 · s^−1) (P. aeruginosa PBP3): ** (** represents a k(on) of 100 to 10,000 M^−1 · s^−1) | P. aeruginosa WT (PAO1) MIC (mg/L) (P. aeruginosa WT (PAO1)): * (* represents an MIC > 16 mg/L) | E. coli MIC (ATCC25922) (mg/L) (E. coli (ATCC25922)): *** (*** represents an MIC < 8 mg/L) | A. baumannii MIC (ARC3495) (mg/L) (A. baumannii (ARC3495)): * (* represents an MIC > 16 mg/L) | K. pneumoniae MIC (ATCC700603) [1]: * (* represents an MIC > 16 mg/L)

CN/C(=N\O)[C@@H]1c2c(cnn2CCCCN)[C@@H]2CN1C(=O)N2OS(=O)(=O)O [Example 68, (4R,8S)-1-(4-aminobutyl)-8-((Z)—N′-hydroxy-N-methylcarbamimidoyl)-6-oxo-4,8-dihydro-1H-4,7-methanopyrazolo[3,4-e][1,3]diazepin-5(6H)-yl hydrogen sulfate]
PBP1a acylation rate, k(on) (M^−1 · s^−1) (P. aeruginosa PBP1a): * (* represents a k(on) < 100 M^−1 · s^−1) | PBP2 acylation rate, k(on) (M^−1 · s^−1) (P. aeruginosa PBP2): * (* represents a k(on) < 100 M^−1 · s^−1) | PBP3 acylation rate, k(on) (M^−1 · s^−1) (P. aeruginosa PBP3): ** (** represents a k(on) of 100 to 10,000 M^−1 · s^−1) | MIC (P. aeruginosa WT (PAO1)): < 8 µg/mL | MIC (E. coli (ATCC25922)): 8 to 16 mg/L | MIC (A. baumannii (ARC3495)): 8 to 16 mg/L | MIC [1]: > 16 µg/mL
